Earlier results as cited in patent US20050256196A1, “Decreasing brain neuronal glutamate levels using alpha-keto branched chain amino acids” (Odessa Pharma, priority 2004, published 2005).

How the values were obtained:
[1] = in vivo
glutamine synthetase [2] = target: T1, glutamine synthetase (Rattus norvegicus, UniProt P09606); parameters: known convulsant doses of MSO (MW 179) to rats; host or cells: rats, in vivo (endogenous enzyme)
glutamine synthetase [3] = target: T1, glutamine synthetase
glutamine synthetase [4] = target: T1, glutamine synthetase; conditions: normal animals after MSO; reduced from 5.6
[5] = rats, known convulsant doses of MSO

T1 sequence (P09606 2-373 limits assumed): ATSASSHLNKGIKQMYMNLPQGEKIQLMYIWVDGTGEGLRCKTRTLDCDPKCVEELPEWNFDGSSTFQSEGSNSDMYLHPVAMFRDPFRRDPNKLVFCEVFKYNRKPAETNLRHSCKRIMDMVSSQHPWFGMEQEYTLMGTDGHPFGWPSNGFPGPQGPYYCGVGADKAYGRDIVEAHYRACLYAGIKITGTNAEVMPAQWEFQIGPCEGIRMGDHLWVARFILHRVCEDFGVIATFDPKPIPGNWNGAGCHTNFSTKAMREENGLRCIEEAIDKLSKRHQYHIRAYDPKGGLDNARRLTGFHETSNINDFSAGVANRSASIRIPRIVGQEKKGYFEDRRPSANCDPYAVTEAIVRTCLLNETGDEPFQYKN

For `CP(=O)(O)CCC(N)C(=O)O` [Glufosinate, ammonium-D-L-homoalanine-4-yl(methyl)-phosphinate], the “crossing of the blood-brain barrier” value [1] is listed as “does not cross the blood-brain barrier”.

For `CSCC[C@H](N)C(=O)O` [L-methionine], the “convulsant activity of MSO on simultaneous administration of L-methionine” value (glutamine synthetase [2]; [5]) is listed as “prevents the convulsant activity” and the “glutamine synthetase inhibitory activity of MSO on simultaneous administration of L-methionine” value (glutamine synthetase [2]; [5]) is listed as “preserves the glutamine synthetase inhibitory activity”.

For `CS(=N)(=O)CC[C@H](N)C(=O)O` (stereo partly drawn) [MSO, L-methionine S-sulfoximine], the “reduction of nerve terminal glutamate levels” value (glutamine synthetase [3]) is given as 52%, the “reduction of brain astrocyte levels of glutamine” value (glutamine synthetase [3]; normal animals) is given as 66% and the “brain levels of glutamine” value (glutamine synthetase [4]) is given as 1.8 mmol/kg brain. For the same compound, the convulsant effect (glutamine synthetase [2]; depending on the dosage) was “can cause periodic convulsions”.
